The OPERA property sets (Mansouri et al. 2018)
Values after ≈ are worked out from the molar mass of the structure shown.

Settings: not given

Structure (SMILES)	boiling point [°C]	melting point [°C]	ready biodegradability	log10 vapour pressure (mmHg)	log10 Henry constant (atm·m³/mol)	log10 Koc (L/kg)	solubility [mM]	log10 Koa	log10 biodegradation half-life (days)	logP
CCC(C)c1cccc(C(C)CC)c1O (stereo not given)	258	-42	not readily biodegradable	–	–	–	–	–	–	–
C=CBr	15.8	-138	–	3.01	–	–	–	–	–	–
N#CCCNc1ccccc1	–	52.5	–	–	–	–	–	–	–	–
ClC(Cl)Br	90	-57	readily biodegradable	–	-2.67	1.78	–	–	–	–
FC(F)(F)C(Cl)=C(Cl)Cl	88.1	–	–	–	–	–	–	–	–	–
CCOC(C)(C)CC	102	–	–	1.7	–	–	–	–	–	–
O=C(O)c1ccc(C(=O)c2ccccc2)cc1	–	199	–	–	–	–	–	–	–	–
CC(=O)OCC(=O)[C@@]1(O)CC[C@H]2[C@@H]3CCC4=CC(=O)CC[C@]4(C)[C@H]3C(=O)C[C@@]21C	–	222	–	–	–	–	–	–	–	–
Cc1ccc(C=O)o1	187	–	–	–	–	–	–	–	–	–
Cc1ccccc1NC=O	288	62	–	–	–	–	–	–	–	–
CCCCc1ccc(O)cc1	248	22	–	-2.65	–	–	–	–	–	–
Cc1cccnc1N	222	33.5	–	–	–	–	–	–	–	–
C=CC	-48	-185	–	3.94	-0.708	–	–	–	–	–
CCC1NC(=O)c2cc(S(N)(=O)=O)c(Cl)cc2N1 (stereo not given)	–	251	–	–	–	–	–	–	–	–
CCCOC(=O)OCCC	168	–	–	–	–	–	–	–	–	–
CC(/C=C\c1ccccc1)c1ccccc1 (stereo not given)	311	47.5	–	–	–	–	–	–	–	–
OCc1ccc(Cl)cc1Cl	–	59.5	readily biodegradable	–	–	–	–	–	–	–
CC(C)(C)C(O)C(Oc1ccc(Cl)cc1)n1cncn1 (stereo not given)	–	124	–	-9.51	–	2.7	–	–	–	–
Cc1cc(Cl)cc2c1SC(=C1Sc3c(C)cc(Cl)cc3C1=O)C2=O	–	–	–	-9.52	–	–	–	–	–	–
C[C@@H]1C[C@H](C)CC(C)(C)C1	152	–	–	–	–	–	–	–	–	–
CNC(N)=O	–	103	–	–	–	–	–	–	–	–
OOC1CCCCC1	–	-20	–	–	–	–	–	–	–	–
O=[N+]([O-])c1ccc(-c2ccc([N+](=O)[O-])cc2)cc1	–	–	–	-7.56	–	–	–	–	–	–
CC(C)=CC(C)(C)C	105	-106	–	1.56	–	–	–	–	–	–
CC(=O)[C@@]1(O)CC[C@H]2[C@@H]3C[C@H](C)C4=CC(=O)C=C[C@]4(C)[C@@]3(F)[C@@H](O)C[C@@]21C	–	297	–	–	–	–	–	–	–	–

Structure (SMILES)	boiling point [°C]	melting point [°C]	ready biodegradability	log10 vapour pressure (mmHg)	log10 Henry constant (atm·m³/mol)	log10 Koc (L/kg)	solubility [mM]	log10 Koa	log10 biodegradation half-life (days)	logP
CCOP(=O)(OCC)SCS(=O)CC (stereo not given)	–	–	–	–	–	–	30.7 (≈ 8000 µg/mL)	–	–	–
O=C(O)CCCCCCCCCCCCCCCO	–	98	–	–	–	–	–	–	–	–
CCCN(CCC)CCC	156	-93.5	–	0.179	–	–	–	–	–	–
OCCN(CCO)c1ccccc1	–	57	–	–	–	–	–	–	–	–
CCc1ccc(C(=O)NN(C(=O)c2cc(C)cc(C)c2)C(C)(C)C)cc1	–	191	–	-7.65	–	–	–	–	–	–
Cn1ccc2ccccc21	237	–	–	–	–	–	–	–	–	–
Clc1cc(Cl)c(-c2ccc(Cl)c(Cl)c2Cl)cc1Cl	–	–	–	-5.42	-4.68	5.93	–	9.8	–	–
C[C@@H](Br)C(=O)Cl	132	–	–	–	–	–	–	–	–	–
CC(Cc1ccccc1)NC(C#N)c1ccccc1 (stereo not given)	–	86	–	–	–	–	–	–	–	–
C=CC(C)(C)CCC	104	–	–	–	–	–	–	–	–	–
COP(=O)(OC)O/C(C)=C/C(=O)N(C)C	–	–	–	-3.8	-10.3	1.66	–	–	–	–
Cc1cc(C)cc(C)c1	165	-44.7	not readily biodegradable	0.395	-2.06	2.82	–	–	0.477	–
O=[N+]([O-])c1ccc(O)c(O)c1	–	175	–	–	–	–	–	–	–	–
Cn1c(=O)c2c(ncn2CC(O)CO)n(C)c1=O (stereo not given)	–	162	–	–	–	–	–	–	–	–
Oc1ccc(NCc2ccccc2)cc1	–	88	–	–	–	–	–	–	–	–
Brc1ccc(Oc2ccc(Br)c(Br)c2Br)c(Br)c1	–	–	–	-8.14	–	–	–	11.7	–	7.37
CC(C)c1ccccc1	152	-96	readily biodegradable	0.653	-1.94	–	–	3.98	1.18	–
COS(=O)(=O)Cl	134	-70	–	–	–	–	–	–	–	–
O=Cc1cccc(C=O)c1	246	89.5	–	–	–	–	–	–	–	–
FC(F)(F)C(F)(F)C(Cl)Cl	51.1	-94	–	2.38	-0.299	–	–	–	–	–
OCc1ccccc1Cl	230	73	–	–	–	–	–	–	–	–
CCCOP(=S)(OCCC)SCC(=O)N1CCCCC1C (stereo not given)	–	–	–	-6.62	–	3.44	–	–	–	–
O=[N+]([O-])c1ccc(SCl)c([N+](=O)[O-])c1	–	99	–	–	–	–	–	–	–	–
O=C(O)C(Br)Br	–	49	–	–	-8.35	–	–	–	–	–
CCCCCOC(=O)CCCCC	226	-47	–	–	–	–	–	–	–	–

Structure (SMILES)	boiling point [°C]	melting point [°C]	ready biodegradability	log10 vapour pressure (mmHg)	log10 Henry constant (atm·m³/mol)	log10 Koc (L/kg)	solubility [mM]	log10 Koa	log10 biodegradation half-life (days)	logP
Clc1cc2oc3ccc(Cl)c(Cl)c3c2c(Cl)c1Cl	–	–	–	–	–	–	–	10.5	–	–
CN(C)C#N	164	–	–	–	–	–	–	–	–	–
CCC(C)CCc1ccccc1 (stereo not given)	220	–	–	–	–	–	–	–	–	–
CCCCCCOC(=O)CCCCC	246	-55	–	–	–	–	–	–	–	–
Clc1ccc(Cl)c(-c2ccccc2)c1	–	–	–	-2.86	-3.55	–	–	–	–	–
O=c1oc(=O)c2cc3c(=O)oc(=O)c3cc12	–	–	readily biodegradable	–	–	–	–	–	–	–
CCCCCCCCCCCCCCI	–	–	–	-3.85	–	–	–	–	–	–
CCN(CC)c1ccc(C=NN(c2ccccc2)c2ccccc2)cc1	–	94.5	–	–	–	–	–	–	–	–
Cc1ccc(C[N+](=O)[O-])cc1	–	11.5	–	–	–	–	–	–	–	–
Cc1ccc(Br)s1	178	–	–	–	–	–	–	–	–	–
CCCC(C)CCN (stereo not given)	149	–	–	–	–	–	–	–	–	–
C1C2C3C2C2C1C32 (stereo not given)	112	–	–	–	–	–	–	–	–	–
CC1(C)C(=O)Nc2ccccc21	300	154	–	–	–	–	–	–	–	–
C#CCCCC	71.3	-132	–	2.12	–	–	–	–	–	–
Cc1cc(=O)nc(C(C)C)[nH]1	–	173	not readily biodegradable	–	–	–	–	–	–	–
CCc1ccc(C(c2ccc(CC)cc2)C(Cl)Cl)cc1	–	56	–	–	–	–	–	–	–	–
Nc1ccc(N)nc1	–	110	readily biodegradable	–	–	–	–	–	–	–
CCCCc1cccc(O)c1	248	–	–	–	–	–	–	–	–	–
O=C1OC(=O)c2c(Cl)c(Cl)c(Cl)c(Cl)c21	–	254	not readily biodegradable	–	–	–	–	–	–	–
O=C1c2ccccc2-c2ccc3c4ccc5c6c(ccc(c7ccc1c2c73)c64)C(=O)c1ccccc1-5	–	492	–	–	–	–	–	–	–	–
CCCCC(C)(CC)CC	164	–	–	–	–	–	–	–	–	–
CC[C@@H](CO)NC(=O)[C@@H]1C=C2c3cccc4c3c(cn4C)C[C@H]2N(C)C1	–	195	–	–	–	–	–	–	–	–
Oc1cccc(Nc2ccccc2)c1	340	81.5	–	–	–	–	–	–	–	–
C=CCOC(=O)CC	124	–	–	–	–	–	–	–	–	–
Cn1cc[nH]c1=S	280	146	–	–	–	–	–	–	–	–

Structure (SMILES)	boiling point [°C]	melting point [°C]	ready biodegradability	log10 vapour pressure (mmHg)	log10 Henry constant (atm·m³/mol)	log10 Koc (L/kg)	solubility [mM]	log10 Koa	log10 biodegradation half-life (days)	logP
O=C(Cc1ccccc1)Cc1ccccc1	331	35	–	-3.13	–	–	–	–	–	–
CC(=O)Oc1cc(C)c(OC(C)=O)c2ccccc12	–	113	–	–	–	–	–	–	–	–
N[C@@H](Cc1cc(I)c(Oc2cc(I)c(O)c(I)c2)c(I)c1)C(=O)O	–	236	–	–	–	–	–	–	–	–
c1ccc2nnccc2c1	–	38	–	–	–	–	–	–	–	–
O=C(Cl)CCCl	144	–	–	–	–	–	–	–	–	–
O=[N+]([O-])c1ccc(Oc2ccc(C(F)(F)F)cc2[N+](=O)[O-])cc1	–	94	–	–	–	–	–	–	–	–
c1cc2c(c(NC3=NCCN3)c1)CCCC2	–	142	–	–	–	–	–	–	–	–
COc1ccc(C(=O)c2ccccc2)c(O)c1	–	65.5	not readily biodegradable	–	–	–	–	–	–	–
CC(C)=CCC/C(C)=C/C=C/C(C)=C/C=C/C(C)=C/C=C/C=C(C)/C=C/C=C(C)/C=C/C=C(\C)CCC=C(C)C	–	175	–	–	–	–	–	–	–	–
CCCCCCCCCCCCOC(C)=O	265	1.3	–	–	–	–	–	–	–	–
CCCCCCCCCCCCc1ccc(N)cc1	–	40.5	readily biodegradable	–	–	–	–	–	–	–
ClC1=C(Cl)[C@]2(Cl)[C@@H]3[C@@H]4C[C@@H]([C@H]5O[C@@H]45)[C@@H]3[C@@]1(Cl)C2(Cl)Cl (single isomer, unassigned)	330	202	not readily biodegradable	-5.38	-5.09	4.08	–	8.52	–	–
Cc1ncc([N+](=O)[O-])n1CC(C)O (stereo not given)	–	76	–	–	–	–	–	–	–	–
CC(=O)Nc1ccc(C)cc1	307	152	–	–	–	–	–	–	–	–
CCC(C)C(C)=O (stereo not given)	118	–	–	1.06	–	–	–	–	–	–
Clc1ccc(SSc2ccc(Cl)cc2)cc1	–	68	–	–	–	–	–	–	–	–
CC(C)NCC(O)c1ccc([N+](=O)[O-])cc1 (stereo not given)	–	98	–	–	–	–	–	–	–	–
NCc1ccco1	146	–	–	–	–	–	–	–	–	–
COP(=S)(OC)SCC(=O)N(C)C=O	–	25.5	–	-6.07	–	–	–	–	–	–
NC(Cc1n[nH]c2ccccc12)C(=O)O (stereo not given)	–	240	–	–	–	–	–	–	–	–
N#CCC(N)=O	–	122	–	–	–	–	–	–	–	–
OC1CCCCC1	161	25.4	readily biodegradable	-0.0969	-5.36	–	–	5.18	–	–

Same assay, conditions: fish

Structure (SMILES)	log10 BCF	log10 biotransformation half-life (days)
CCC(C)c1cccc(C(C)CC)c1O (stereo not given)	2.39	-0.22
Clc1cc(Cl)c(-c2ccc(Cl)c(Cl)c2Cl)cc1Cl	–	2.59
Cc1cc(C)cc(C)c1	2.27	0.4
Brc1ccc(Oc2ccc(Br)c(Br)c2Br)c(Br)c1	–	1.34
CC(C)c1ccccc1	1.55	–
Clc1ccc(Cl)c(-c2ccccc2)c1	3.98	2.38
Cc1cc(=O)nc(C(C)C)[nH]1	0.26	–
Brc1cc(Br)c(Oc2c(Br)c(Br)c(Br)c(Br)c2Br)cc1Br	5.93	–
COc1ccc(C(=O)c2ccccc2)c(O)c1	1.97	–
ClC1=C(Cl)[C@]2(Cl)[C@@H]3[C@@H]4C[C@@H]([C@H]5O[C@@H]45)[C@@H]3[C@@]1(Cl)C2(Cl)Cl (single isomer, unassigned)	3.91	1.65
CCOP(=S)(NC(C)CC)Oc1cc(C)ccc1[N+](=O)[O-] (stereo not given)	2.46	-0.2
